From patent US20180200279A1, “INHIBITION OF HSV-1-ASSOCIATED CORNEAL NEOVASCULARIZATION USING INHIBITORS OF CYCLIN-DEPENDENT KINASE 9” (XAVIER UNIVERSITY OF LOUISIANA, priority 2014, published 2018) come the findings set out here.

The subject of assay [1] is HUVEC. Nature of the assay: In vitro tubule formation assay. It counts as cell-based, human. To be noted: 25 ng/mL bFGF and VEGF. The method, then:
The number of circular tubular structures formed by HUVEC under conditions of serum starvation followed by treatment with 25 ng/mL bFGF and VEGF and with 0-200 nM FP were quantitatively analyzed. Manual counting at low power fields was used to quantitate tubular structures and percentage of inhibition was expressed using VEGF control wells as 100%.
Growth factor-reduced Geltrex (Life Technologies, Grand Island, N.Y.) was thawed overnight on ice. Each well of 96-well plated was coated at […] with 50 μL Geltrex and incubated at 37° C. for 30 min. […] After 12-16 hours, tubule formation was assessed with an inverted photomicroscope and the images were photographed using Olympus U-RLF-T microscope. Manual counting at low power fields was used to quantitate tubular structures and percentage of inhibition was expressed using VEGF control wells as 100%. Results represent one triplicate repeat of three independent experiments with similar results.
Following migration from the vessel of origin and invasion through the ECM, ECs form capillary tubules. […] The number of circular nodes surrounded by tubular structures was quantitatively analyzed in a masked fashion.

Assay [2] has as its system HUVEC. In words: Endothelial cell transwell migration assay. It counts as cell-based, human. As to conditions: 16 hours. How it is done: Migration/invasion assays were performed using 24-well, 8-μm pore size BD Biocoat Matrigel migration chambers according to the manufacturer's instructions (BD Biosciences, San Jose, Calif.). […] Cells were allowed to migrate for 16 hours at 37° C. Following incubation, cotton swabs were used to remove the cells on the top surface of the membrane, and cells on the bottom side of the membrane were fixed with 4% formaldehyde for 30 min, washed 3-5 times with PBS, and then stained with 10 μM Calcein AM (migration) or 10 μM Celltracker green-labeled (invasion). Migrating or invading cells from three repeats in two independent experiments were then counted using an inverted microscope. Data are expressed as mean percent migration and mean percent invading cells compared with untreated cells±SEM.
Cell migration induced by chemoattractant angiogenic factors such as bFGF and VEGF is an important step in the angiogenic process. […] Data presented as percent fluorescence normalized to control untreated cells (100% migration).

Assay [3] relates to chick embryo chorioallantoic membrane. In words: Ex ovo chick chorioallantoic membrane (CAM) collagen onplant angiogenesis assay. As to conditions: 100 nM flavopiridol in bFGF/VEGF-containing collagen plugs; 3 days. It counts as in vivo.
Procedure: After 3 days, CAMs were photographed, and angiogenesis was quantified by counting the number of grids positive for new blood vessel growth in a blinded manner. Results are expressed as number of grids positive for blood vessels and as percent positive grids.
Female 20 g Balb/c mice were obtained from Charles River Laboratories. Mice were allowed to equilibrate to their surroundings for 2 weeks and then were anesthetized by intramuscular administration of xylazine (6.6 mg/kg of body weight) and ketamine (100 mg/kg of body weight). The corneas were mildly scarified in a 2×2 cross-hatch pattern and each cornea was inoculated with 5×10^5 PFU of strain HSV 17syn+. […] DNA was collected by swabbing the eyes with filter paper, and the eyes were examined with a slit-lamp on PI days 2, 4, 7, 9, 11, 14, 18 and 25. Average neovascularization/eye was scored using the formula A=(C×0.4×L×π)/2 where C=clock hours of neovascularization; 30° arc is 1 (360° circle with a total of 12); L is the length of the longest neovessel, and A is the area of neovascularization. Students scored (by eye) the animals on the days indicated in a masked fashion using the slit-lamp, and images representative of each group were taken. Clinical scores based on epiphora, inflammation and discharge were calculated where 0=no manifestations, +1=slight manifestations, +2=moderate manifestations, and +3=severe manifestations. […]

In the case of `CN1CC[C@H](c2c(O)cc(O)c3c(=O)cc(-c4ccccc4Cl)oc23)[C@H](O)C1` [flavopiridol], the “tubular structures, VEGF control wells as 100%” value in the assay on HUVEC [1] (50 nM flavopiridol, not statistically different from control) amounted to 114.7±7.17; with HUVEC [1] (100 nM flavopiridol, not statistically different from control), 97.67±5.36; with HUVEC [1] (150 nM flavopiridol, significantly reduced), 55.33±9.70. In addition, the results for the “percent migration normalized to untreated control cells (100%)” value with HUVEC [2] (100 nM flavopiridol) and in the assay with HUVEC [2] (150 nM flavopiridol) were 74.99%±2.35 and 25.08±1.79%, respectively. The “angiogenesis: grids positive for newly formed blood vessels” value in assay [3] came to 14.33±2.10.
